What follows are compounds tested on acyl coenzyme A: cholesterol acyltransferase (ACAT) (assay: Test for ACAT inhibitory activity (microsome fraction prepared from rabbit liver)). Details: 10^-6 M, 37° C., 10 minutes.
Assay type: biochemical
Procedure: Test for ACAT inhibitory activity The test for ACAT inhibitory activity was performed by a modified method of the method of Brecher et al. Biochim. Biophys. […] The radioactivity of the cholesterol ester spot was determined by a liquid scintillation counter. The radio-activity for each test compound was calculated by the difference between the radioactivity with the microsome fraction and the radioactivity without the microsome fraction. The radioactivity of control was determined in a similar manner without any test compound.

| Structure (SMILES) | Inhibiting rate(%) of ACAT [%] |
| --- | --- |
| Cc1cc2c(cc1C)C(C(=O)Nc1c(C(C)C)cccc1C(C)C)c1ccccc1CO2 (stereo not drawn) [Compound 48, 6,11-Dihydro-N-(2,6-diisopropylphenyl)-2,3-dimethyldibenz[b,e]oxepin-11-carboxamide] | 96 |
| CC(C)c1cccc(C(C)C)c1NC(=O)C1c2ccccc2COc2c1cc(Br)cc2[N+](=O)[O-] (stereo not drawn) [Compound 53, 2-Bromo-6,11-dihydro-N-(2,6-diisopropylphenyl)-4-nitrodibenz[b,e]oxepin-11-carboxamide] | 100 |
| Cc1ccc2c(c1)C(C(=O)Nc1c(C)cccc1C)c1ccccc1CO2 (stereo not drawn) [Compound 2, 6,11-Dihydro-2-methyl-N-(2,6-dimethylphenyl) dibenz[b,e]-oxepin-11-carboxamide] | 66 |
| CSc1cc(C(C)C)c(NC(=O)C2c3ccccc3COc3ccc(Br)cc32)c(C(C)C)c1 (stereo not drawn) [Compound 44, 2-Bromo-6,11-dihydro-N-(2,6-diisopropyl-4-methylthiophenyl)dibenz[b,e]oxepin-11-carboxamide] | 95 |
| CC(C)c1cccc(C(C)C)c1NC(=O)C1c2ccccc2COc2ccc(Br)cc21 (single isomer, unassigned) [Compound 60, (-) -2-Bromo-6,11-dihydro-N-(2,6-diisopropylphenyl) dibenz[b,e]oxepin-11-carboxamide] | 99 |
| Cc1ccc2c(c1)C(C(=O)Nc1c(C(C)C)cccc1C(C)C)c1ccccc1CC2 (stereo not drawn) [Compound 68, 10,11-Dihydro-N-(2,6-diisopropylphenyl)-3-methyl-5H-dibenz[a,d]cyclohepten-5-carboxamide] | 99 |
| CC(C)c1cccc(C(C)C)c1NC(=O)C1c2ccccc2COc2ccc(Br)cc21 (single isomer, unassigned) [Compound 61, (+) -2-Bromo-6,11-dihydro-N-(2,6-diisopropylphenyi)dibenz[b,e]oxepin-11-carboxamide] | 92 |
| CC(C)c1cccc(C(C)C)c1NC(=O)C1c2cc(Br)ccc2OCc2ncccc21 (stereo not drawn) [Compound 42] | 91 |
| Cc1cc(C)c2c(c1)OCc1ccccc1C2C(=O)Nc1c(C(C)C)cccc1C(C)C (stereo not drawn) [Compound 62, 6,11-Dihydro-N-(2,6-diisopropylphenyl)-1,3-dimethyldibenz-[b,e]oxepin-11-carboxamide] | 100 |
| Cc1ccc(Cl)c2c1C(C(=O)Nc1c(C(C)C)cccc1C(C)C)c1ccccc1CO2 (stereo not drawn) [Compound 64, 4-Chloro-6,11-dihydro-N-(2,6-diisopropylphenyl) -1-methyldibenz[b,e]oxepin-11-carboxamide] | 100 |
| CCc1cccc(CC)c1NC(=O)C1c2ccccc2COc2c(C)ccc(C)c21 (stereo not drawn) [Compound 50, 6,11-Dihydro-N-(2,6-diethylphenyl) -1,4-dimethyldibenz[b,e]-oxepin-11-carboxamide] | 93 |
| Cc1cc2c(c(C)c1Br)C(C(=O)Nc1c(C(C)C)cccc1C(C)C)c1ccccc1CO2 (stereo not drawn) [Compound 56, 2-Bromo-6,11-dihydro-N-(2,6-diisopropylphenyl)-1,3-dimethyldibenz[b,e]oxepin-11-carboxamide] | 99 |
| CSc1cc(C(C)C)c(NC(=O)C2c3ccccc3COc3ccc(C)cc32)c(C(C)C)c1 (stereo not drawn) [Compound 30, 6,11-Dihydro-N-(2,6-diisopropyl-4-methylthiophenyl)-2-methyldibenz[b,e]oxepin-11-carboxamide] | 78 |
| CC(C)c1cccc(C(C)C)c1NC(=O)C1c2ccccc2CCc2cc(Br)ccc21 (stereo not drawn) [Compound 69, 2-Bromo-10,11-dihydro-N-(2,6-diisopropylphenyl) -5H-dibenz[a,d]cyclohepten-5-carboxamide] | 98 |
| COC(=O)c1cc(C)cc2c1OCc1ccccc1C2C(=O)Nc1c(C(C)C)cccc1C(C)C (stereo not drawn) [Compound 51, Methyl 6,11-dihydro-11-(2,6-diisopropylphenyl)aminocarbonyl-2-methyldibenz[b,e]oxepin-4-carboxylate] | 99 |
